Results reported in patent US11895992B2, “Animal models of corneal ectatic diseases, methods of producing, and methods of use thereof” (priority 2014, dated 2024).
Like-named read-outs stand apart in the source and are kept apart here.

Experiments:
[1] = tested on: cornea of one eye of a Wistar rat
Procedure: A rat model of corneal keratoconus was produced as follows. An aqueous benzene composition having a concentration of 7.0 M to 8.5 M was prepared by mixing water and benzene. The composition was then sterilized by heating the solution to 100° C. for 15 minutes. The aqueous benzene composition (10 μL) was topically applied directly to the center of the cornea of one eye of a Wistar rat by micropipetting. The rat was three months old, and benzene was applied only once.

[2] = tested on: cornea of the right eye of a Wistar rat
Procedure: Rat models of corneal angiogenesis were produced as follows. Aqueous benzene compositions having the desired concentration (between 3.0 M and 7.0 M) were prepared by mixing benzene and water. The aqueous composition was then sterilized by heating to 100° C. for 15 minutes. In particular, 3.0 M, 4.0 M, 5.0 M, 6.0 M, or 7.0 M aqueous benzene compositions were prepared. Then, 10 μL of each composition was topically applied to the center of the cornea of the right eye of a Wistar rat that was two to three months old. The benzene aqueous composition was allowed to absorb into the eye, and was applied only once. Because the eye has its own natural protective mechanisms, it was not necessary to wash the eye at the end of the application.

[3] = tested on: cornea of the right eye of a Wistar rat; conditions: for Observation in Treated Eye (Number of Rats) Angiogenesis / Observation in Treated Eye (Number of Rats) Corneal Keratoconus / Observation in Treated Eye (Number of Rats) No Change: 10 μL applied once, 5 rats treated
Procedure: Rat models of corneal angiogenesis and corneal keratoconus were produced as follows. Aqueous solutions of phenol having a concentration of 0.1 M, 0.5 M, 1.0 M, 3.0 M, 5.6 M, or 8.5 M were prepared by mixing phenol and water. The solutions were then sterilized by heating to 100° C. for 15 minutes. Then, 10 μL of the sterile phenol solution was topically applied to the center of the cornea of the right eye of a Wistar rat that was two months old. Five rats were treated for each concentration of phenol tested. The phenol solution was allowed to absorb into the eye, and was applied only once. Because the eye has its own natural protective mechanisms, it was not necessary to wash the eye at the end of the application.
Histological studies were performed after eight weeks following the application of phenol. The cornea was excised, and a piece of the corneal epithelium was stained with hematoxylin and eosin stain.

cornea = conditions: compared to the amount observed when benzene is used
[4] = 7.0 M to 8.5 M aqueous benzene composition, 10 μL

## c1ccccc1 [benzene]
[1]; [4]
  time at which changes in the cornea began to occur following application: within the first week
  time of protrusion of the cornea following application: within the second week
[1]; 7.0 M to 8.5 M aqueous benzene composition, 10 μL, applied once (FIG. 3)
  corneal tissue changes in addition to angiogenesis: marked thinning, and outward protrusion
[1]; 10 μL of a 9.0 M aqueous benzene composition
  severity of corneal keratoconus / endophthalmitis (intraocular infection): so severe that the rats developed endophthalmitis
[2]; all concentrations of benzene (3.0 M to 7.0 M, 10 μL), as early as 15 days after application
  new blood vessel formation in the cornea: new blood vessels began to form in the cornea
[2]; single application of benzene
  persistence of observed growth of new blood vessels from the initial application: at least four
[2]; three weeks after application
  amount of new blood vessels observed in the cornea, compared with 15 days: even greater
[2]; within 15 days of application, 3.0 M to 7.0 M
  amount of new blood vessels observed when higher concentrations were applied: increased

## Oc1ccccc1 [phenol]
[3]; 3 M phenol solution, 10 μL, three weeks (FIG. 1B)
  other anatomical or inflammatory alterations besides new corneal vessels: no other anatomical or inflammatory alterations were observed
[3]; Phenol Concentration 0.1M
  Observation in Treated Eye (Number of Rats) Angiogenesis: 1 Number of Rats
  Observation in Treated Eye (Number of Rats) Corneal Keratoconus: 0 Number of Rats
  Observation in Treated Eye (Number of Rats) No Change: 4 Number of Rats
[3]; Phenol Concentration 0.5M
  Observation in Treated Eye (Number of Rats) Angiogenesis: 1 Number of Rats
  Observation in Treated Eye (Number of Rats) Corneal Keratoconus: 0 Number of Rats
  Observation in Treated Eye (Number of Rats) No Change: 4 Number of Rats
[3]; Phenol Concentration 1.0M
  Observation in Treated Eye (Number of Rats) Angiogenesis: 3 Number of Rats
  Observation in Treated Eye (Number of Rats) Corneal Keratoconus: 0 Number of Rats
  Observation in Treated Eye (Number of Rats) No Change: 7 Number of Rats
[3]; Phenol Concentration 3.0M
  Observation in Treated Eye (Number of Rats) Angiogenesis: 4 Number of Rats
  Observation in Treated Eye (Number of Rats) Corneal Keratoconus: 2 Number of Rats
  Observation in Treated Eye (Number of Rats) No Change: 1 Number of Rats
[3]; Phenol Concentration 6.5M
  Observation in Treated Eye (Number of Rats) Angiogenesis: 4 Number of Rats
  Observation in Treated Eye (Number of Rats) Corneal Keratoconus: 2 Number of Rats
  Observation in Treated Eye (Number of Rats) No Change: 1 Number of Rats
[3]; Phenol Concentration 8.5M
  Observation in Treated Eye (Number of Rats) Angiogenesis: 3 Number of Rats
  Observation in Treated Eye (Number of Rats) Corneal Keratoconus: 1 Number of Rats
  Observation in Treated Eye (Number of Rats) No Change: 2 Number of Rats
[3]; after single application of aqueous phenol solution
  period over which blood vessel growth was observed: four
[3]; all concentrations tested (0.1 M to 8.5 M), at least one of the rats in each group, one week after application
  new blood vessel formation in the cornea: new blood vessels began to form in the cornea
[3]; eight weeks after single application of 3.0 M phenol solution (10 μl), FIG. 1C
  histology of corneal epithelium, hematoxylin and eosin stain: well differentiated blood vessels can be seen under the basal membrane of the corneal epithelium
[3]; higher concentrations of phenol tested (3.0 M, 5.6 M, and 8.5 M)
  changes associated with corneal ectasia, particularly corneal keratoconus: observed in some of the rats
[3]; three weeks after application (FIG. 1B, 3 M solution)
  amount of new blood vessels observed in the cornea, compared with one week: even greater
cornea
  fibrosis and scar tissue formation, phenol compared with benzene: less fibrosis and scar tissue formation
